Results taken from publication PMC5918173, “Characterization of Transglutaminase 2 activity inhibitors in monocytes in vitro and their effect in a mouse model for multiple sclerosis” (PLoS ONE, 2018).

What was measured:
[1] = molecular target: T1, TG2-fibronectin (FN42) interaction (Homo sapiens, UniProt P21980); experiment: TG2 interaction with fibronectin (FN42) ELISA; type: binding; details: 5 and 15 μM, with or without 1 mM CaCl2, Fig 2E, 2F
T1 construct: purchased Zedira
T1 sequence (P21980 1-687): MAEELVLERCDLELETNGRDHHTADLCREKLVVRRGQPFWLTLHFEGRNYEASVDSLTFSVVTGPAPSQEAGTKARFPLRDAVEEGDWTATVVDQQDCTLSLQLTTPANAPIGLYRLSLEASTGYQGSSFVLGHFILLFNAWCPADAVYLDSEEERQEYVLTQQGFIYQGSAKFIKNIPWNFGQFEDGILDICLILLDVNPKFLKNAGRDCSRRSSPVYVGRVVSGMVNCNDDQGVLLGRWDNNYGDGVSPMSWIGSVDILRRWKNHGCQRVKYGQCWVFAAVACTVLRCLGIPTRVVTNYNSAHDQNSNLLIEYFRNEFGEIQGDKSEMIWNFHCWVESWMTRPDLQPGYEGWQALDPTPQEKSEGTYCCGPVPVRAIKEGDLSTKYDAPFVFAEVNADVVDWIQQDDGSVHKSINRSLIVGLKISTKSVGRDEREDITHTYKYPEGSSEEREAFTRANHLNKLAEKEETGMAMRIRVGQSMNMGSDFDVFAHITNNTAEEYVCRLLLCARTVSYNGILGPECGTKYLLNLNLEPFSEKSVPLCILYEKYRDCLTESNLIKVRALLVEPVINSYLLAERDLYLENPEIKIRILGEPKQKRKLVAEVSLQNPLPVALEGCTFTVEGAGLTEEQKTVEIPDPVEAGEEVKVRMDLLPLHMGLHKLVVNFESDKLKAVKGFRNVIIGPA
Method: To determine the potential effect of BJJF078 and ERW1041E on the interaction of TG2 with fibronectin, ELISA experiments were performed as described previously. Briefly, 96 well ELISA plates (Nunc, Maxisorp) were coated with 100 μg/ml mouse anti his-tag monoclonal antibody (Roche) in PBS at 4°C overnight. This was followed by simultaneous washing and blocking with 0.5% BSA in PBS (3x 10 min). Per well 50 μl of a 10 nM human recombinant TG2 (his-tagged, Zedira) solution in PBS was added. Into each well (triplicates) either DMSO (control, 1% final concentration) or TG2 inhibitors (BJJF078, ERW1041E, final concentration 5 and 15 μM in 1% DMSO) were added. As a positive control similar concentrations of TG53, a small molecule that inhibits the interaction between TG2 and fibronectin was added (kindly provided by Prof D. Matei, Northwestern University, Chicago, USA). […] After 1 h incubation at RT, 50 μl of 10 nM FN42-biotin solution (kindly provided by Prof D. Matei) was added to the wells. After an additional 1 h incubation at RT and washing steps (3x 10 min) with 0.5% BSA in PBS, 100 μl streptavidin-HRPO conjugate (from kit opr001, Covalab) was added and incubated for 1 h at RT. This was followed by another series of washes and the colour reaction started with 100 μl of 3,3′,5,5′ tetramethylbenzidine substrate (TMB, from kit opr001, Covalab). After sufficient colour development (15 min), the reaction was stopped with 1M HCl and absorbance was measured at 450 nm.

EAE C57BL/6 mice = experiment: MOG35-55 induced EAE in C57BL/6 mice, treatment with TG2 inhibitors; type: in vivo, mouse; details: for loss of body weight compared to vehicle / severity of motor symptoms compared to vehicle: 25 mg/kg i.p. twice daily from onset of EAE symptoms
From the text: All animal experiments were approved by the animal ethical committee of the VU University Medical Center and carried out within the animal facility of the Vrije Universiteit Amsterdam (protocol number ANW14-02). C57BL/6 (C57BL/6JOlaHsd) mice were purchased from Harlan (The Netherlands) at an age of 10 weeks and acclimatized to the new environment with water and food access ad libitum for 2 weeks before EAE induction. Humane endpoints were taken into account to prevent unnecessary suffering of the animals.
Active EAE was induced with the myelin oligodendrocyte glycoprotein peptide amino acids 35-55 (MOG35-55) from a EAE induction kit (Hooke laboratories), according to the provided protocol. In short, mice were injected subcutaneously in the upper and lower back with 100 μl of an emulsion of MOG35-55 in complete Freund’s adjuvant (CFA, containing heat inactivated Mycobacterium tuberculosis) each. At 3 hours and 26 hours after the subcutaneous injection of the emulsion, mice received an intraperitoneal injection of 150 ng pertussis toxin dissolved in PBS (volume: 0.1 ml). Disease symptoms and bodyweight were assessed daily starting from day 7 after immunization according to the following scale: 0 no disease, 0.5: partial tail weakness, 1: tail paralysis, 2: hind limb weakness, 3: partial hind limb paralysis, 4: complete hind limb paralysis, 5: moribund, dead.
The mice were injected twice daily with BJJF078 (n = 11) or ERW1041 (n = 12), starting from the onset of EAE symptoms until the end of the experiment (day 21/day 28 after immunization). The EAE animals were injected intraperitoneally with an inhibitor dose of 25 mg/kg bodyweight (i.e. ~100 μl) containing 20% DMSO, while the corresponding control groups (n = 12 and n = 10) were injected with PBS in 20% DMSO.

[2] = tested on: inflammatory cells in spinal cord of EAE mice; experiment: Immunohistochemistry of cell infiltrates (CD45, CD68, CD3) in spinal cord of EAE mice; type: in vivo, mouse; parameters: key to CD45 (average) / CD68 (average): -: no positive cells; +: few positive cells; ++: intermediate amounts of positive cells; +++: high amounts of cells/ cellular clusters; details: for CD3 range / CD45 (average) / CD45 range / CD68 (average) / CD68 range: spinal cord of EAE mice, semi-quantitative, 3 sections per animal; for relative amount of inflammatory cells (CD45, CD68, CD3) in spinal cord: visual inspection or semi-quantification, versus vehicle
Method: Immunohistochemical staining was performed on cervical, thoracic and lumbar spinal cord sections from EAE mice treated with vehicle, BJJF078 or ERW1041E. The sections were brought back to room temperature and fixed with acetone for 10 min.
For single immunohistochemical stainings (CD3, CD45, CD68), endogenous peroxidase activity was blocked for 15 min with 0.3% hydrogen peroxide and 0.1% sodium azide in TBS. […] The sections were incubated with primary antibodies (Table 1) at 4°C overnight. After subsequent 2 h incubation with appropriate biotinylated IgGs (1/400, Jackson), the procedure was continued with a 1 h incubation with HRP-labelled avidin-biotin complex (ABC complex 1:400, Vector ABC elite kit, Vector laboratories) and the protocol was followed as described for the in situ TG activity staining above. Semi-quantitative analysis of cellular infiltrates per cell type was performed by unbiased manual evaluation of stained lesion areas per spinal cord section.

With `C=CC(=O)NC1CCN(S(=O)(=O)c2cccc3c(NC(=O)c4ccc(OC)c(OC)c4)cccc23)CC1` [BJJF078, 3,4-Dimethoxy-N-(5-[4-(acryloylamino)piperidine-1-sulfonyl]-naphthalen-1-yl)-benzamide] the “effect on binding of TG2 to fibronectin (FN42)” value [1] was “did not interfere”, the “loss of body weight compared to vehicle” value (EAE C57BL/6 mice) was “no differences” and the “severity of motor symptoms compared to vehicle” value (EAE C57BL/6 mice) was “no differences”. For the same compound, the CD3 range [2] was “- to +”, the “CD45 (average)” value [2] was “++” and the CD45 range [2] was “+ to +++”. The “CD68 (average)” value [2] was “++”, the CD68 range [2] was “- to +++” and the “relative amount of inflammatory cells (CD45, CD68, CD3) in spinal cord” value [2] was “not affected”.

With `O=C(NCC1CC(Br)=NO1)C1CCCN1C(=O)OCc1cnc2ccccc2c1` (stereo not shown) [ERW1041E, 2-[(3-Bromo-4,5-dihydro-isoxazol-5-ylmethyl)-carbamoyl]-pyrrolidine-1—carboxylic acid quinolin-3-ylmethyl ester] the “effect on binding of TG2 to fibronectin (FN42)” value [1] was “did not interfere”, the “loss of body weight compared to vehicle” value (EAE C57BL/6 mice) was “not affected” and the “severity of motor symptoms compared to vehicle” value (EAE C57BL/6 mice) was “modest but significant reduction”. For the same compound, the “average maximal disease score” value (EAE C57BL/6 mice; 25 mg/kg i.p. twice daily from onset, scale 0-5, vehicle 3.9) was 3.4 score, the CD3 range [2] was “- to +” and the “CD45 (average)” value [2] was “++”. The CD45 range [2] was “+ to +++”, the “CD68 (average)” value [2] was “++” and the CD68 range [2] was “- to +++”. For the same compound, the “relative amount of inflammatory cells (CD45, CD68, CD3) in spinal cord” value [2] was “not affected”.
